Laboratory results: patent US12624004B2 (Fudan University, priority 2019, dated 2026)
Like-named read-outs stand apart in the source and are kept apart here.

What was measured:
[1] = target: T1, δ opioid receptor (Homo sapiens, UniProt P41143); assay: Competition binding assay on membranes of CHO cells expressing δ opioid receptor, [3H]-labeled ligand; conditions: 0.5 h, read-out: δOR Binding rate (%)
T1 construct: expressed in transfected cells; host or cells: CHO cells (membranes)
Outline: (§1)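 CHO membranes (20–30 μg protein) incubated with [3H]-labeled ligand at 1–2 nM and test compounds, 30 min at 30° C; nonspecific binding with 1 μM corresponding ligand. Filtered on GF/C, washed with 50 mM Tris-HCl pH 7.4, scintillation-counted. IC50 converted to Ki by Ki=IC50/(1+[L]/Kd).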

[2] = target: T2, μ opioid receptor (Homo sapiens, UniProt P35372); assay: Competition binding assay on membranes of CHO cells expressing μ opioid receptor, [3H]-labeled ligand
T2 construct: expressed in transfected cells; host or cells: CHO cells (membranes)
Outline: as §1

[3] = target: T3, κ opioid receptor (Homo sapiens, UniProt P41145); assay: Competition binding assay on membranes of CHO cells expressing κ opioid receptor, [3H]-labeled ligand; conditions: 0.5 h, read-out: κOR Binding rate (%)
T3 construct: expressed in transfected cells; host or cells: CHO cells (membranes)
Outline: as §1

[4] = tested on: Female mice; assay: In vivo hot plate method analgesia test; conditions: intraperitoneal
Outline: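 Female mice (~20 g) on a 55° C hot plate, hindpaw response latency as pain threshold (pre-screen 5–30 s, 60 s cut-off). Latencies at 15, 30, 60 and 120 min after intraperitoneal dosing. %MPE = (post−pre latency)/(60−pre)×100, ED50 derived from %MPE.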

[5] = Table 1-1, 10 μM concentration of compound
[6] = Table 3-1, 1 μM concentration of compounds
[7] = Table 2-1, 1 μM concentration of compound

In the case of `COc1cccc(C2(O)CCC(N(C)S(=O)(=O)c3ccccc3)CC2CN(C)C)c1.Cl` (stereo not drawn) [N-(3-((Dimethylamino)methyl)-4-hydroxy-4-(3-methoxyphenyl)cyclohexyl)-N-methylbenzenesulfonamide hydrochloride], the inhibition at 10 µM [1, 5] is reported as 0%, the inhibition at 10 µM ([2]; Table 1-1, 10 μM concentration of compound, mean ± SD of three measurements, read-out: μOR Binding rate (%)) is reported as 86.7 ± 1.6% and the inhibition at 10 µM [3, 5] is reported as 46.7 ± 9.2%. For the same compound, the “Maximum percentage effective analgesic (% MPE)” value ([4]; Table 1-2, hot plate 55° C., 5 mg/kg dose) was 15.8%.

`COc1cccc(C2(O)CCN(C(=O)Nc3ccc(Cl)cc3)CC2CN(C)C)c1.Cl` (stereo not drawn) [FWBF4, N-(4-Chlorophenyl)-3-((dimethylamino)methyl)-4-hydroxy-4-(3-methoxyphenyl)piperidine-1-carboxamide hydrochloride] was tested, and the inhibition at 1 µM [1, 6] was 0%, the inhibition at 1 µM ([2]; Table 3-1, 1 μM concentration of compounds, read-out: μOR Binding rate (%)) was 48.8 ± 3.9% and the inhibition at 1 µM [3, 6] was 22.1 ± 10.7%. The “% MPE @ 10 mg/kg” value ([4]; Table 3-2, hot plate 55° C., 10 mg/kg dose) was 68.95%.

`CCS(=O)(=O)N1CCC(O)(c2cccc(OC)c2)C(CN(C)C)C1.Cl` (stereo not drawn) [FWBH18, 3-((Dimethylamino)methyl)-1-(ethylsulfonyl)-4-(3-methoxyphenyl)piperidin-4-ol hydrochloride] was tested, and the inhibition at 1 µM [1, 7] was 24 ± 0.49%, the Ki ([2]; Table 2-1, read-out: μOR Ki) was 180 ± 11.7 nM and the inhibition at 1 µM [3, 7] was 13.5 ± 2.22%. The “% MPE (5 mg/kg)” value ([4]; Table 2-2, hot plate 55° C., 5 mg/kg dose) was 15.57%.
